EC50 data for 22 molecules are collected here from US9328104B2, “Selective androgen receptor modulators” (Pfizer Inc., priority 2012, dated 2016).

The target in one assay is T1, full length human Androgen Receptor (AR) (Homo sapiens, UniProt P10275).
T1 construct: transiently transfected in T225 cm^2 flasks with a full length human Androgen Receptor (AR) cDNA; expressed in transfected cells; host or cells: CV-1 cells (ATCC CCL-70), transiently transfected with AR cDNA in pcDNA3 and ARE-luciferase in pGL3
T1 sequence (P10275 1-920): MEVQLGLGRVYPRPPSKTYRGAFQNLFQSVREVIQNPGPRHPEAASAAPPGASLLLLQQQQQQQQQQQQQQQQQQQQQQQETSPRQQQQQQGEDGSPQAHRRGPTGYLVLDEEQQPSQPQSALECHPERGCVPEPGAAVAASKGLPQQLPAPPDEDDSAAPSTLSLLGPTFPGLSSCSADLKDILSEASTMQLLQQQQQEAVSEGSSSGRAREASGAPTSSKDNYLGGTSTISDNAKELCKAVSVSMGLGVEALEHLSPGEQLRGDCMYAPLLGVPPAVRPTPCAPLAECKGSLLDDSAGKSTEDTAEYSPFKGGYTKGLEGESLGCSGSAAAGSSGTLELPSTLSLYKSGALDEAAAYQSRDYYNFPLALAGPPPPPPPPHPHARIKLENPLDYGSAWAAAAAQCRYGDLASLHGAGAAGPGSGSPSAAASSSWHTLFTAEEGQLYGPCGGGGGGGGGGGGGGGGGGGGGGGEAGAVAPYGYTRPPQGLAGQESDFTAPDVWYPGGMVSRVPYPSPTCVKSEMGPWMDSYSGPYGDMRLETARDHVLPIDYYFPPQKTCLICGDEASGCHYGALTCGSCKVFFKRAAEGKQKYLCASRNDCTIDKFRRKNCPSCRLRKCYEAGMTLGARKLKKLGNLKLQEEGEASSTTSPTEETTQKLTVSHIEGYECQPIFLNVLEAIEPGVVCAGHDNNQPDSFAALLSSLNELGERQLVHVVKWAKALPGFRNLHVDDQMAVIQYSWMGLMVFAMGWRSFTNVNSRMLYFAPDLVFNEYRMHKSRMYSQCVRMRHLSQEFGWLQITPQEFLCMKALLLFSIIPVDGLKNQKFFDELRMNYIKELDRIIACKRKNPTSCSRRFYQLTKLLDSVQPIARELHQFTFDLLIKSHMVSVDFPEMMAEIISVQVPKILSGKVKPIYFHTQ
Put plainly: Androgen Receptor-Mediated Transcriptional Assay (ARE-luciferase reporter in transiently transfected CV-1 cells).
Conditions: not given
Type of assay: cell-based. As to the method:
Androgen Receptor-Mediated Transcriptional Assay Summary
CV-1 cells (American Tissue Culture Collection cat# CCL-70) were expanded in Growth Media and transiently transfected in T225 cm^2 flasks with a full length human Androgen Receptor (AR) cDNA in the pcDNA3 expression vector and a human Androgen Response Element (ARE)-luciferase cDNA in the pGL3 vector (both from Invitrogen). DNA (μg) and Lipofectamine (μl) at a ratio of 1:3 were incubated with the cells in a total volume of 55 mL Basal Media for 4 hours. Cells were harvested by trypsinization and frozen back (−150° C. cryomed) at a concentration of 4.3 million cells/mL.
On the day of the assay, frozen cells were thawed and re-suspended in Re-suspension Media and plated at 40,000 cells/well (in 100 μL volume) in 96 well white plates and were incubated for at least 4 h at 37° C., 5% CO2. After incubation, cells were treated with the compounds to be screened. 10 mM stocks of the compounds were serially diluted 1:10 in 100% DMSO followed by an additional 1:100 dilution in Assay Media. These dilution series were added to the cell plates resulting in a further 1:10 dilution and a final % DMSO of 0.1%. The vehicle control wells also contained this dilution of DMSO and the positive control wells contained […] (DHT) as an AR agonist at final concentration of 0.3 nM in 0.1% DMSO. Cells were incubated for 16-18 hours at 37° C. and 5% CO2. Then the culture media was removed from and the cells were lysed in 20 μL of cell lysis reagent for 5 minutes at room temperature. 50 μL of luciferase reagent was added to each well and luminescence, over 5 seconds, was measured.
EC50 (half maximal effective concentration) was calculated from concentration series plots which generated sigmoidal curves. Xlfit software was used to plot the best fit of the % effect vs concentration and to calculate the EC50.
Reagents and Materials used in the Androgen Receptor-Mediated Transcriptional Assay include the following: • Growth Media—DMEM/high glucose—10% FBS: 500 ml phenol red DMEM/high glucose (Gibco, Grand Island N.Y., cat #10569-010), 10% non heat-inactivated Fetal Bovine Serum (FBS) (Atlanta Biologicals, Norcross Ga., cat #S-12450), 1% Nonessential Amino Acids (Gibco, cat #11140-050), 1% Penicillin-Streptomycin (Gibco, cat #15140-122) • Basal Media—phenol red free DMEM/high glucose (Gibco, cat #31053-028)+1% Na Pyruvate (Gibco, cat #11360-070), 1% Nonessential Amino Acids (Gibco, cat #11140-050), 1% GlutaMAX-I (Gibco, cat #35050-061) • Re-suspension Media—basal media+1% Penicillin-Streptomycin (Gibco, cat #15140-122) • Assay Media—basal media+5% charcoal stripped FBS (HyClone, Logan Utah, Cat #SH30068)+1% Penicillin-Streptomycin (Gibco, cat #15140-122) • Cell Lysis Reagent—Promega, Cat #PAE1531 • Luciferase Reagent—Promega, Cat #PAE1483
Broadly, the EC50 is the midpoint of the concentration-response curve. For the molecule `CC[C@H]1CNS(=O)(=O)N1c1ccc2c(C#N)nccc2c1` (single isomer, unassigned) [Compound 2], the response was half-maximal at 18 nM (EC50). `C[C@H]1CNS(=O)(=O)N1c1ccc2c(C#N)cccc2c1` (single isomer, unassigned) [Compound 9] yielded an EC50 of 4 nM.

Take `CCN1C[C@@H](C)CN(c2ccc3c(C#N)nccc3c2)S1(=O)=O` (single isomer, unassigned) [Compound 16]: the EC50 is 262 nM.

With `C[C@H]([C@@H](O)C(F)(F)F)N(C)c1ccc2c(C#N)nccc2c1` (single isomer, unassigned) [Compound 26], a half-maximal effect (EC50) was put at 0.1 nM. The molecule `C[C@H]([C@H](O)C(F)(F)F)N(C)c1ccc2c(C#N)nccc2c1` (single isomer, unassigned) [Compound 27] registered an EC50 of 12.9 nM.

In the case of `N#Cc1nccc2cc(N3CCCC[C@@H]3[C@@H](O)C(F)(F)F)ccc12` (single isomer, unassigned) [Compound 28], the midpoint of the response, the EC50, lay at 61.5 nM. The molecule `N#Cc1nccc2cc(N3CCCC[C@@H]3[C@H](O)C(F)(F)F)ccc12` (single isomer, unassigned) [Compound 29] came in with an EC50 of 0.02 nM. Still for that read-out and setting: the figure for `N#Cc1nccc2cc(N3C(=O)CC[C@@H]3[C@H](O)C(F)(F)F)ccc12` (single isomer, unassigned) [Compound 32] is 84.3 nM; for `N#Cc1nccc2cc(N3C(=O)CC[C@H]3[C@H](O)C(F)(F)F)ccc12` (single isomer, unassigned) [Compound 33] it is 231 nM. `N#Cc1nccc2cc(N3CCC[C@@H]3[C@@H](O)C(F)(F)F)ccc12` (single isomer, unassigned) [Compound 34]: the EC50 stood at 0.1 nM.

The same assay, now with this note: CV-1 cells transfected with human AR and ARE-luciferase; 16-18 hours incubation; luminescence; read-out: EC50 Values for Compounds 1-22 from Androgen Receptor-Mediated Transcriptional Assay.
With “6-[(4S)-4-(3-methylphenyl)-1,1-dioxido-1,2,6-thiadiazinan-2-yl]isoquinoline-1-carbonitrile [Compound 20]”, the half-maximal effective concentration (EC50) is 8 nM. On to “6-[(4S)-4-ethyl-1,1-dioxido-1,2,6-thiadiazinan-2-yl]isoquinoline-1-carbonitrile [Compound 21]”, for which the EC50 came to 8 nM. Take `CC1CCN(c2ccc3c(C#N)nccc3c2)S(=O)(=O)N1` (racemic) [Compound 17, 6-(5-methyl-1,1-dioxido-1,2,6-thiadiazinan-2-yl)isoquinoline-1-carbonitrile]: the EC50 amounted to 16 nM. Still for that read-out and setting: to `CCCC1CNS(=O)(=O)N(c2ccc3c(C#N)nccc3c2)C1` (racemic) [Compound 22, 6-(1,1-dioxido-4-propyl-1,2,6-thiadiazinan-2-yl)isoquinoline-1-carbonitrile] belongs 569 nM. In the case of `N#Cc1nccc2cc(N3[C@H](CC(F)(F)F)CNS3(=O)=O)ccc12` (single isomer, unassigned) [Compound 3], the EC50 worked out at 79 nM.

In the case of `N#Cc1nccc2cc(N3[C@H](CCc4ccccc4)CNS3(=O)=O)ccc12` (single isomer, unassigned) [Compound 4], the EC50 was found to be 22 nM.

`N#Cc1nccc2cc(N3[C@H](c4cccc(C(F)(F)F)c4)CNS3(=O)=O)ccc12` (single isomer, unassigned) [Compound 6]: the EC50 worked out at 10 nM.

Regarding `N#Cc1nccc2cc(N3[C@@H](c4ccc(Cl)cc4)CNS3(=O)=O)ccc12` (single isomer, unassigned) [Compound 7], the concentration giving a half-maximal response (EC50) was 22 nM. Turning to `Cc1cccc(C[C@@H]2CNS(=O)(=O)N(c3ccc4c(C#N)nccc4c3)C2)c1` (single isomer, unassigned) [Compound 15], the EC50 stood at 195 nM.

For `Cc1ccc([C@H]2CNS(=O)(=O)N(c3ccc4c(C#N)nccc4c3)C2)cc1` (single isomer, unassigned) [Compound 18], the EC50 was determined as 20 nM.

Turning to `Cc1ccc([C@@H]2CNS(=O)(=O)N(c3ccc4c(C#N)nccc4c3)C2)cc1` (single isomer, unassigned) [Compound 19], the EC50 was found to be 177 nM.

Staying with this assay, now noted: CV-1 cells transfected with human AR and ARE-luciferase; 16-18 hours incubation; luminescence; read-out: EC50 Values for Compounds 23-39 from Androgen Receptor-Mediated Transcriptional Assay.
As to “6-{(2R,5R)-2-[(1R)-1-hydroxyethyl]-5-methylpyrrolidin-1-yl}isoquinoline-1-carbonitrile [Compound 31]”, the concentration giving a half-maximal response (EC50) stood at 474 nM.
